compound: CC1=C(C(=NN1)C)CC2=C(C3=C(S2)N(C(=O)N(C3=O)C)CC(C)C)C(=O)N4C[C@@H](CO4)O + CC1(C)CCC(c2ccc(Cl)cc2)=C(CN2CCN(c3ccc(C(=O)NS(=O)(=O)c4ccc(N[C@H](CCN5CCOCC5)CSc5ccccc5)c(S(=O)(=O)C(F)(F)F)c4)cc3)CC2)C1 [Navitoclax] (partner 0.5 µM); test: relative viability (nuclei count vs DMSO), 5 days (fraction); higher = more cells survive; settings: first compound 0.0025 µM
In short: (§1)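 Each reported value is a median over duplicate plates. It expresses relative viability: treated-well nuclei count divided by vehicle-well nuclei count. Lung cancer cell lines in 1536-well plates were dosed by pin tool a day after seeding, alone with one drug or with a fixed anchor-drug dose plus five library-drug doses (not always all listed) in √10 steps, and nuclei were counted after 5 days.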

Cell Line	relative viability
NCI-H727	0.44
NCI-H1650	1.37
EBC-1	0.473
NCI-H1703	1.36
NCI-H1993	0.949
SW 1573	0.978
NCI-H838	1.22
NCI-H520	1.22
NCI-H2126	0.852
EMC-BAC-2	1.16
NCI-H2085	1.22
Calu-6	0.925
HCC-366	1.09
NCI-H1666	0.969
NCI-H596	1.06
LK-2	0.884
NCI-H2087	1.05
SK-MES-1	1.3
H3255	0.562
COR-L23	0.783
COR-L 105	0.969
IA-LM	0.738
LOU-NH91	0.773
ChaGo-K-1	0.996
NCI-H2170	0.613
HCC-44	0.925
A549	1.32
NCI-H1299	1.08
NCI-H1792	0.608

same assay, conditions: first compound 0.007906 µM

Cell Line	relative viability
NCI-H727	0.36
NCI-H1650	1.22
EBC-1	0.426
NCI-H1703	1.4
NCI-H1993	0.959
SW 1573	1.1
NCI-H838	1.24
NCI-H520	1.16
NCI-H2126	0.877
EMC-BAC-2	1.14
NCI-H2085	1.12
Calu-6	0.827
HCC-366	0.997
NCI-H1666	0.954
NCI-H596	1.16
LK-2	0.852
NCI-H2087	0.979
SK-MES-1	1.42
H3255	0.542
COR-L23	0.984
COR-L 105	0.768
IA-LM	0.796
LOU-NH91	0.604
ChaGo-K-1	0.903
NCI-H2170	0.747
HCC-44	1.08
A549	1.27
NCI-H1299	1.04
NCI-H1792	0.572

same assay, conditions: first compound 0.025 µM

Cell Line	relative viability
NCI-H727	0.344
NCI-H1650	1.2
EBC-1	0.485
NCI-H1703	0.972
NCI-H1993	0.92
SW 1573	0.927
NCI-H838	1.12
NCI-H520	0.654
NCI-H2126	0.882
EMC-BAC-2	1.16
NCI-H2085	1.06
Calu-6	0.805
HCC-366	1.05
NCI-H1666	1.01
NCI-H596	0.931
LK-2	0.746
NCI-H2087	0.953
SK-MES-1	1.12
H3255	0.516
COR-L23	0.777
COR-L 105	0.682
IA-LM	0.912
LOU-NH91	0.776
NCI-H2170	0.556
HCC-44	1.04
A549	1.14
NCI-H1299	1.08
NCI-H1792	0.445

same assay, conditions: first compound 0.07906 µM

Cell Line	relative viability
NCI-H727	0.364
NCI-H1650	1.27
EBC-1	0.498
NCI-H1703	0.928
NCI-H1993	0.94
SW 1573	0.929
NCI-H838	1.16
NCI-H520	0.558
NCI-H2126	0.829
EMC-BAC-2	1.16
NCI-H2085	1.12
Calu-6	0.906
HCC-366	1.03
NCI-H1666	1.14
NCI-H596	1.01
LK-2	0.983
NCI-H2087	1.1
SK-MES-1	1.28
H3255	0.487
COR-L23	0.781
COR-L 105	0.561
IA-LM	0.784
LOU-NH91	0.809
ChaGo-K-1	1.21
NCI-H2170	0.612
HCC-44	0.892
A549	1.32
NCI-H1299	1.05
NCI-H1792	0.509

same assay, conditions: first compound 0.25 µM

Cell Line	relative viability
NCI-H727	0.439
NCI-H1650	1.21
EBC-1	0.494
NCI-H1703	0.744
NCI-H1993	0.925
SW 1573	1.12
NCI-H838	1.25
NCI-H520	0.683
NCI-H2126	0.826
EMC-BAC-2	1.38
NCI-H2085	1.22
Calu-6	0.892
HCC-366	1.13
NCI-H1666	1.1
NCI-H596	1.16
LK-2	0.949
NCI-H2087	1.16
SK-MES-1	1.33
H3255	0.568
COR-L23	0.845
COR-L 105	0.657
IA-LM	0.722
LOU-NH91	0.788
ChaGo-K-1	1.5
NCI-H2170	0.543
HCC-44	1.19
A549	1.24
NCI-H1299	0.987
NCI-H1792	0.524

compound: Cc1ccccc1C(C(=O)NC1CCCCC1)N(C(=O)Cn1ccnc1C)c1cccc(F)c1 [IDH-C35] + CC1(C)CCC(c2ccc(Cl)cc2)=C(CN2CCN(c3ccc(C(=O)NS(=O)(=O)c4ccc(N[C@H](CCN5CCOCC5)CSc5ccccc5)c(S(=O)(=O)C(F)(F)F)c4)cc3)CC2)C1 [Navitoclax] (partner 0.5 µM); test: as above; settings: first compound 0.08 µM
In short: as §1

Cell Line	relative viability
NCI-H727	0.377
NCI-H1650	1.23
EBC-1	0.364
NCI-H1703	1.05
NCI-H1993	0.943
SW 1573	0.964
NCI-H838	1.15
NCI-H520	1.02
NCI-H2126	0.906
EMC-BAC-2	1.13
NCI-H2085	1.21
Calu-6	0.838
HCC-366	0.937
NCI-H1666	1.03
NCI-H596	1.1
LK-2	0.88
NCI-H2087	1.13
SK-MES-1	1.18
H3255	0.577
COR-L23	1.17
COR-L 105	1.01
IA-LM	0.711
LOU-NH91	0.69
ChaGo-K-1	0.62
NCI-H2170	0.626
HCC-44	0.927
A549	1.19
NCI-H1299	1.02
NCI-H1792	0.637

same assay, conditions: first compound 0.253 µM

Cell Line	relative viability
NCI-H727	0.429
NCI-H1650	1.21
EBC-1	0.503
NCI-H1703	1.29
NCI-H1993	0.878
SW 1573	1.07
NCI-H838	1.11
NCI-H520	1.15
NCI-H2126	0.864
EMC-BAC-2	1.12
NCI-H2085	1.25
Calu-6	0.765
HCC-366	1.13
NCI-H1666	0.977
NCI-H596	1
LK-2	0.834
NCI-H2087	1.02
SK-MES-1	1.03
H3255	0.543
COR-L23	0.907
COR-L 105	1.04
IA-LM	0.838
LOU-NH91	0.78
ChaGo-K-1	0.966
NCI-H2170	0.535
HCC-44	1.02
A549	1.16
NCI-H1299	1.08
NCI-H1792	0.593

same assay, conditions: first compound 0.8 µM

Cell Line	relative viability
NCI-H727	0.371
NCI-H1650	1.19
EBC-1	0.52
NCI-H1703	1.49
NCI-H1993	0.919
SW 1573	1.07
NCI-H838	1.19
NCI-H520	1.07
NCI-H2126	0.849
EMC-BAC-2	1.15
NCI-H2085	1.15
Calu-6	0.997
HCC-366	1.03
NCI-H1666	0.961
NCI-H596	0.925
LK-2	0.866
NCI-H2087	0.896
SK-MES-1	1.28
H3255	0.495
COR-L23	0.977
COR-L 105	0.64
IA-LM	0.798
LOU-NH91	0.722
ChaGo-K-1	1.09
NCI-H2170	0.595
HCC-44	1.02
A549	1.17
NCI-H1299	1.02
NCI-H1792	0.619

same assay, conditions: first compound 2.53 µM

Cell Line	relative viability
NCI-H727	0.399
NCI-H1650	1.24
EBC-1	0.359
NCI-H1703	1.11
NCI-H1993	1.1
SW 1573	0.841
NCI-H838	1.15
NCI-H520	0.933
NCI-H2126	0.866
EMC-BAC-2	1.12
NCI-H2085	1.14
Calu-6	0.968
HCC-366	0.981
NCI-H1666	1.07
NCI-H596	0.867
LK-2	0.911
NCI-H2087	0.867
SK-MES-1	1.14
H3255	0.606
COR-L23	0.979
COR-L 105	0.899
IA-LM	0.742
LOU-NH91	0.635
ChaGo-K-1	0.73
NCI-H2170	0.479
HCC-44	0.953
A549	1.22
NCI-H1299	1.05
NCI-H1792	0.621

same assay, conditions: first compound 8 µM

Cell Line	relative viability
NCI-H727	0.35
NCI-H1650	1.17
EBC-1	0.203
NCI-H1703	0.897
NCI-H1993	1.13
SW 1573	1.02
NCI-H838	1.11
NCI-H520	1.21
NCI-H2126	0.857
EMC-BAC-2	1.14
NCI-H2085	1.21
Calu-6	0.78
HCC-366	1.01
NCI-H1666	0.881
NCI-H596	0.962
LK-2	0.903
NCI-H2087	0.999
SK-MES-1	1.27
H3255	0.636
COR-L23	1.05
COR-L 105	0.569
IA-LM	0.707
LOU-NH91	0.735
ChaGo-K-1	1.17
NCI-H2170	0.627
HCC-44	0.952
A549	1.15
NCI-H1299	1.03
NCI-H1792	0.646

compound: Cc1ccccc1C(C(=O)NC1CCCCC1)N(C(=O)Cn1ccnc1C)c1cccc(F)c1 [IDH-C35] + COc1cc2c(Oc3ccc(NC(=O)C4(C(=O)Nc5ccc(F)cc5)CC4)cc3F)ccnc2cc1OCCCN1CCOCC1 [Foretinib] (partner 0.25 µM); test: as above; settings: first compound 0.08 µM
In short: as §1

Cell Line	relative viability
NCI-H1623	0.91
NCI-H727	0.87
NCI-H1650	1.11
EBC-1	0.0931
NCI-H1703	0.321
NCI-H1993	0.797
SW 1573	1.18
NCI-H838	1.07
LCLC-103H	0.795
NCI-H520	0.788
NCI-H2126	1.14
EMC-BAC-2	0.947
NCI-H2085	0.895
Calu-6	0.884
HCC-366	0.986
NCI-H1666	1.05
NCI-H596	0.948
LK-2	1.23
NCI-H2087	0.953

Source: the supplement of paper PMC10307832
